For data set [1], the system named is Long-Evans rats. Put plainly: Rat incisional model, H&E histological scoring for inflammation. The data set is classed as in vivo. The settings on record: low and high doses, all time points. On the procedure:
(§1) Using sterile techniques, longitudinal wounds were incised on shaved dorsal skin of the rats. A 4 cm incision was cut through the panniculus down to the skeletal musculature, and a 250 μL single dose of either 10 mg/mL hyaluronic acid (HA) or HA+DS-SILY was applied to the open wound by a syringe. DS-SILY was tested at 0.5, 1, and 2.5 mg/mL mixed with HA. The incision was then sutured closed and animals were returned to individual cages and monitored for complications. Negative control rats received no treatment and were treated identically. A pilot study was performed (n=3) at time points 3, 7, 10, 14, and 21 days, followed by a higher powered study (n=9) for 21 and 28 day time points. […]
(§2) H&E stained samples were examined for inflammation by a board certified pathologies blinded to the treatments following a scale adapted from Simhon et al. Trichrome stained samples were evaluated for scar tissue formation by an observer blinded to the treatments using a method established by Beausang et al. in which collagen orientation, density, and maturation are observed and compared to collagen of healthy tissue. A total of 12 tissue samples were analyzed for each study at each time point. Statistics were analyzed by ANOVA using Design Expert software (StatEase, Minneapolis, Minn.). […]

The test system of data set [2] is Long-Evans rats. Put plainly: Rat incisional model, tensile testing of scar (scar strength). Type of data set: in vivo. On the procedure:
Using sterile techniques, longitudinal wounds were incised on shaved dorsal skin of the rats. A 4 cm incision was cut through the panniculus down to the skeletal musculature, and a 250 μL single dose of either 10 mg/mL hyaluronic acid (HA) or HA+DS-SILY was applied to the open wound by a syringe. DS-SILY was tested at 0.5, 1, and 2.5 mg/mL mixed with HA. The incision was then sutured closed and animals were returned to individual cages and monitored for complications. Negative control rats received no treatment and were treated identically. A pilot study was performed (n=3) at time points 3, 7, 10, 14, and 21 days, followed by a higher powered study (n=9) for 21 and 28 day time points.
At a predetermined time after surgery (3-28 days) the animals were euthanized. Photographs of the incision were obtained, and the dermal wound including a 1 inch area around the wound edge was excised and cut into 4mm wide strips using a custom cutting device with fixed blades. Relevant tissues were harvested for tensile strength testing and histologic study.
Based on these findings, a full powered (n=9 rats/treatment) was performed using the later time points 21-day and 28-day, and comparing the same low dose, but modifying the high dose to 0.25 mg DS-SILY. DS-SILY was delivered with HA in each study and the negative control received no treatment.
Following necropsy, 4 mm skin strips (n=4 per animal) were placed in 1×PBS and kept at 4° C. for up to 6 hours. The wound breaking strength was measured at time points from 3 to 21 days. Skin samples were loaded onto a mechanical testing system (Test Resources, mode:100P/Q) such that the incision was orthogonal to the grips. Samples were loaded under tension with a rate of 5 mm/min to failure. […] No differences were observed between the low and high peptidoglycan concentrations.

Data set [3] deals with Long-Evans rats. As to the kind of experiment: Rat incisional model, trichrome histological scoring of scar tissue (Beausang). The data set is classed as in vivo. The settings on record: 21-days post-injury; 0.125 mg and 0.625 mg; vs untreated wounds. On the procedure: as §1, §2
In a further data set the target is T1, collagen gels (Bos taurus, UniProt P02453+P02465).
T1 construct: purchased Inamed, Freemont, Calif; Nutragen
T1 sequence (P02453 162-1217 limits assumed): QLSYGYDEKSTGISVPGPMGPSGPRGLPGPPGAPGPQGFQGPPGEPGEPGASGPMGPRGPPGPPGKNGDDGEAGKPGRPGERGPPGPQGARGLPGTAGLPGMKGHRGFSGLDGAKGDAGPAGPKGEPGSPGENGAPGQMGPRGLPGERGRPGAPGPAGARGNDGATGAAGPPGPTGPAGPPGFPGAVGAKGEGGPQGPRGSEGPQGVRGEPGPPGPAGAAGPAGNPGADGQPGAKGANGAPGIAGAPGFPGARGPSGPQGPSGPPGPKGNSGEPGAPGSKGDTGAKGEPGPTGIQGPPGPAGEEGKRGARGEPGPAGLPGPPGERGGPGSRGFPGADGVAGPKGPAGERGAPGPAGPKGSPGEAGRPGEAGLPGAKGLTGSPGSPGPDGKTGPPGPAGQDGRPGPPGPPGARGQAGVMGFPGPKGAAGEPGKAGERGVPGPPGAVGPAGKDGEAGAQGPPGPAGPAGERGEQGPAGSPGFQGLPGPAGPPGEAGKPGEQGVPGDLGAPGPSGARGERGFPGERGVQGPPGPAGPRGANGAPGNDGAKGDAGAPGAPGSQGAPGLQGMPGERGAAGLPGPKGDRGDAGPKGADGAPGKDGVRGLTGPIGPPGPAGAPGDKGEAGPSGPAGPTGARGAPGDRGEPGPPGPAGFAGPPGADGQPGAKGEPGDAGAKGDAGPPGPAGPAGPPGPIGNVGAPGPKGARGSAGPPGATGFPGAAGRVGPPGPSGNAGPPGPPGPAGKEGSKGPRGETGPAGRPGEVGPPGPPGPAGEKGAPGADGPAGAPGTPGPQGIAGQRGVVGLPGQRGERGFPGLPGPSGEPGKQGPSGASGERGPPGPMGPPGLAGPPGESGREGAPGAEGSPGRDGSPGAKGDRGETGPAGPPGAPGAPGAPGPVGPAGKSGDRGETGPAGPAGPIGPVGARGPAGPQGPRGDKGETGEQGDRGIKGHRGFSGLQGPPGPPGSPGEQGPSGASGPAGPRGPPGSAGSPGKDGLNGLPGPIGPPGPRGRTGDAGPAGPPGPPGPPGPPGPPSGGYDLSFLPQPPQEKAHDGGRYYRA
T1 sequence (P02465 80-1117 limits assumed): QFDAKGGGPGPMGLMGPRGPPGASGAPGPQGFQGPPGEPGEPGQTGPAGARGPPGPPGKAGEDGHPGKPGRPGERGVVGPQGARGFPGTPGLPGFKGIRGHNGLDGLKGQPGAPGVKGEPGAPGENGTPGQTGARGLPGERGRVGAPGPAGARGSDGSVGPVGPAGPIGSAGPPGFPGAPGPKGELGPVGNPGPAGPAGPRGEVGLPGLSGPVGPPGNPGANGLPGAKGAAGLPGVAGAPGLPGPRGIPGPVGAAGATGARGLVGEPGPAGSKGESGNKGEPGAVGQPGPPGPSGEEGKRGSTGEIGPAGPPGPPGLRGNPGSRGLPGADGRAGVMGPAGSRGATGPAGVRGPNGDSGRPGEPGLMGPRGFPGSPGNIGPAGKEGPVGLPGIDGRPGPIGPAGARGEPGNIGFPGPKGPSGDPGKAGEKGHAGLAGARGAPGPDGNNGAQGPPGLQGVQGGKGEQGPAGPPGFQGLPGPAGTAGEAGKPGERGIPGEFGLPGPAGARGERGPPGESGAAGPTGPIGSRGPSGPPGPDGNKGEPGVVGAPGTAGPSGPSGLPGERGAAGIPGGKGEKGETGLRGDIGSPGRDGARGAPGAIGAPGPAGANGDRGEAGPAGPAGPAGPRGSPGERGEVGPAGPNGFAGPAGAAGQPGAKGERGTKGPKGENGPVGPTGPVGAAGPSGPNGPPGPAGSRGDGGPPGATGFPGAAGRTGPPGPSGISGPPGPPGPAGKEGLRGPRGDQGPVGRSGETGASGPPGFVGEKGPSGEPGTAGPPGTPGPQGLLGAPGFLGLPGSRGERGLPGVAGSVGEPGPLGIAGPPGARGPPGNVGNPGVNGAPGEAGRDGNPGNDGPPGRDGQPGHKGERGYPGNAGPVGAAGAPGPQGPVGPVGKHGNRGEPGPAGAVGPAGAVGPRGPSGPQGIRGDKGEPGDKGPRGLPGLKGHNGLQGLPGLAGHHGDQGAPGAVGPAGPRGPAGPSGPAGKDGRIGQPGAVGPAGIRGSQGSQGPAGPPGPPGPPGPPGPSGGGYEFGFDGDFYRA
Put plainly: Cryo-SEM measurement of fibril density. The data set is classed as biochemical. The settings on record: 10:1 molar ratio, cryo-SEM 10,000×. On the procedure: Collagen gels were formed in the presence of each additive at a 10:1 molar ratio, as described in EXAMPLE 16, directly on the SEM stage, processed, and imaged as described. Images at 10,000× were analyzed for fibril density calculations. Images were converted to 8-bit black and white, and threshold values for each image were determined using ImageJ software (NIH). The threshold was defined as the value where all visible fibrils are white, and all void space is black. The ratio of white to black area was calculated using MatLab software. All measurements were taken in triplicate and thresholds were determined by an observer blinded to the treatment.

For another data set, the target named is T2, collagen (Bos taurus, UniProt P02453+P02465).
T2 construct: purchased Inamed, Freemont, Calif; Nutragen
T2 sequence (P02453 162-1217 limits assumed): as the sequence (P02453 162-1217 limits assumed) above
T2 sequence (P02465 80-1117 limits assumed): as the sequence (P02465 80-1117 limits assumed) above
Put plainly: Fibrillogenesis turbidity assay (absorbance at 313 nm). Type of data set: biochemical. The settings on record: 4 mg/mL collagen, 10:1 collagen:treatment unless otherwise indicated. On the procedure:
Gels were made with Nutragen collagen (Inamed, Freemont, Calif.) at a final concentration of 4 mg/mL collagen. Nutragen stock is 6.4 mg/mL in 10 mM HCl. Gel preparation was performed on ice, and fresh samples were made before each test. The collagen solution was adjusted to physiologic pH and salt concentration, by adding appropriate volumes of 10×PBS (phosphate buffered saline), 1×PBS, and 1M NaOH. For most experiments, samples of DS, decorin, DS-SILY, or DS-Dc13 were added at a 10:1 collagen:treatment molar ratio by a final 1×PBS addition (equal volumes across treatments) in which the test samples were dissolved at appropriate concentrations. In this way, samples are constantly kept at pH 7.4 and physiologic salt concentration. Collagen-alone samples received a 1×PBS addition with no sample dissolved. Fibrillogenesis will be induced by incubating neutralized collagen solutions at 37° C. overnight in a humidified chamber to avoid dehydration. Gel solutions with collagen:treatment molar ratios of other than 10:1 were prepared similarly.
Collagen fibrillogenesis was monitored by measuring turbidity related absorbance at 313 nm providing information on rate of fibrillogenesis and fibril diameter. Gel solutions were prepared as described in EXAMPLE 16 (4 mg/mL collagen, 10:1 collagen:treatment, unless otherwise indicated) and 50 uL/well were added at 4° C. to a 384-well plate. The plate was kept at 4° C. for 4 hours before initiating fibril formation. A SpectraMax M5 at 37° C. was used to measure absorbance at 313 nm at 30 s intervals for 6 hours.
A fibrillogenesis assay as described for DS-SILY, EXAMPLE 19, performed with the conjugate DS-Dc13.

Ends that are not written are not given here.

Regarding “DS-SILY: collagen-binding peptidoglycan in which a single SILY peptide was conjugated to dermatan sulfate via PDPH (RRANAALKAGELYKSILYGC; also: single peptide conjugated to dermatan sulfate via PDPH, site not given here)”, the “inflammatory response (histological scoring)” value is on record as “does not cause an adverse immune response” in the data set on Long-Evans rats [1] and “did not have any adverse inflammatory effect” in the data set with Long-Evans rats [1] (listed as peptidoglycan). Also, in the data set on Long-Evans rats [2] (21 days post-injury, vs untreated or HA treated wounds), the wound breaking strength entry is listed as “significant increase in wound breaking strength when compared to untreated or HA treated wounds”. Also, the scar strength result is reported as “increased scar strength over no treatment” with Long-Evans rats [2] (full powered study, 0.125 mg and 0.25 mg with HA, 21-days); “significantly higher compared to the HA control, but was not different from no treatment” with Long-Evans rats [2] (full powered study, 0.125 mg and 0.25 mg with HA, 28-days); “significantly increases scar strength” in the data set on Long-Evans rats [2] (pilot study, low (0.125 mg) and high (0.625 mg) dose delivered with HA, 21-days). Further, in the data set on Long-Evans rats [3], the “histological score for collagen maturity and organization (scar tissue)” value is given as “significantly lower scores”. Also, in the data set with collagen gels, the “fibril density (ratio of fibril containing area to void space)” value is reported as “significantly greater fibril density”. Besides, the rate of fibrillogenesis result in the data set with collagen is given as “decrease the rate of fibrillogenesis”.

(Values after US20170283458A1, “COLLAGEN-BINDING SYNTHETIC PEPTIDOGLYCANS FOR WOUND HEALING” (Symic Biomedical, Inc., priority 2009, published 2017).)
